Source: US20090318396A1, “CORTICOSTEROID LINKED BETA-AGONIST COMPOUNDS FOR USE IN THERAPY” (priority 2008, published 2009)

Assays:
[1] = test system: carbachol-induced bronchoconstriction; experiment: Carbachol-induced bronchoconstriction in sheep; assay type: in vivo; settings: Example 52 4.7 mg, Salmeterol 2.5 mg, mean ± s.e.m, n=4
Method: Bronchoconstriction was evaluated as a function of increased pulmonary resistance following carbachol challenge. […] Test article was administered either by a pre-dosing or duration of action protocol. In the pre-dosing regimen, animals were dosed once daily for four days, with the last dose administered 1 hr before carbachol challenge. In the duration of action regimen, animals were dosed once daily for four days, with the last dose administered 24 hours before carbachol challenge. Test article and carbachol were administered by nebulized aerosol to intubated sheep.

[2] = test system: ragweed-induced bronchoconstriction; experiment: Ragweed-induced bronchoconstriction in dogs; assay type: in vivo, beagle dogs; settings: mean ± s.e.m.
Method: The compound of Example 52 was assesed for bronchodilator activity in a ragweed-induced bronchoconstriction model in beagle dogs. Dogs were mechanically ventilated during each experiment. Airflow and tidal volume were measured using a differential pressure transducer located in front of the endotracheal tube. An esophageal balloon catheter placed in the esophagus was used to determine transpulmonary pressure. Pulmonary resistance and dynamic lung compliance were calculated from the simultaneous measurement of transpulmonary pressure and respiratory flow. The canine exposure system was designed to expose an anesthetized animal via an intubation tube. Dogs were administered vehicle or test article by inhalation 30 minutes before ragweed antigen exposure (n=4). Dogs were challenged with ragweed antigen (ragweed short, Ambrosia artemisifolia, Greer, Lenoir, N.C.) by inhalation (5 breaths). Immediately following ragweed challenge, changes in pulmonary resistance and compliance were measured for up to 30 minutes.

[3] = test system: LPS-induced airway inflammation; experiment: LPS-induced airway inflammation in rats; assay type: in vivo, Male Fischer 344 rats; settings: for TNFα / Neutrophils: rat BAL, mean ± s.e.m.
Method: Example 52 was evaluated in an LPS-induced airway inflammation model in rats. Male Fischer 344 rats (n 8/group) were treated with either vehicle or test article by intratracheal instillation in […] volume 1 hour prior to LPS challenge. Animals were then exposed to LPS by nose-only inhalation exposure for 10 minutes at 5 mg/m^3 resulting in an estimated 5 μg lung deposition. Animals were sacrificed 4 hours after LPS exposure. Lungs were lavaged for bronchoalveolar lavage cell differentials and cytokine analysis by Luminex multiplex immunoassay.

[4] = test system: ovalbumin-induced lung inflammation; experiment: Mouse ovalbumin model of lung inflammation; assay type: in vivo, Mice (Balb/c); settings: mouse OVA
Method: Mice (Balb/c) were immunized by intraperitoneal injection of ovalbumin (10 μg OVA suspended in 2 mg aluminum hydroxide) on day 0 and 7. One group was sensitized and treated with vehicle (NSV). One group was immunized with sterile water only and treated with vehicle, e.g. to serve as a nonsensitized (negative) control (Vehicle). […] On days 14 and 15, the animals were exposed to OVA by inhalation (3 h; 5 mg/m^3). Forty eight hours following the last OVA challenge (day 17) mice were sacrificed. Bronchoalveolar lavage (BAL) was taken from each animal to collect cells and fluid. Cell numbers and differentials were calculated from BAL.

[5] = test system: tobacco-smoke-induced airway inflammation; experiment: Tobacco smoke model of airway inflammation in mice; assay type: in vivo, female C3H mice; settings: for IL-1α / MIP-1α / Neutrophils: mean ± s.e.m.
Method: Vehicle and test articles are delivered by intratracheal instillation in 10% ethanol water to animals anesthetized with 3-5% isoflurane (n=8 animals per test article group). All compounds will be delivered on a daily (5 days per week) schedule for 3 weeks during the smoke exposures. Mice were exposed to cigarette smoke for 6 hours per day, 5 days per week for 3 weeks, in H1000 or H2000 chambers. Type 2R4F research cigarettes (Kentucky Tobacco Research and Development Center) were used in the study. Total particulate material (TPM) exposure was kept at […] for the first week to allow animals to reduce adverse effects during adaptation to smoke exposure. TPM exposure was maintained between 100 and 250 mg TPM/m^3 during the remainder of the study. After 3 weeks, animals were euthanized and bronchoalveolar lavage fluid was obtained for cell differentials and cytokine analysis by Luminex multiplex immunoassay.

[6] = test system: Ascaris suum antigen-induced bronchoconstriction and airway hyperreactivity; experiment: Ascaris suum-induced pulmonary responses in sheep; assay type: in vivo
Method: One breath unit is defined as one breath of a 1% w/v carbachol solution. Test article was administered either by a pre-dosing or duration of action protocol. In the pre-dosing regimen, animals were dosed once daily for four days, with the last dose administered 1 hr before antigen. In the duration of action regimen, animals were dosed once daily for four days, with the last dose administered 24 hours before antigen. Test article, Ascaris antigen, and carbachol were administered by nebulized aerosol to intubated sheep.

[7] = 3.0 mg/kg IT, 1x/day day 14 and 15

CC[N+](CC)(CC(=O)OCC(=O)[C@@]12O[C@H](C3CCCCC3)O[C@@H]1C[C@H]1[C@@H]3CCC4=CC(=O)C=C[C@]4(C)[C@H]3[C@@H](O)C[C@@]12C)Cc1cc(C(O)CNCCCCCCOCCCCc2ccccc2)ccc1OP(=O)(O)O.[Cl-] (stereo partly drawn) [Example 52, [5-[1-hydroxy-2-[6-(4-phenylbutoxy)hexylamino]ethyl]-2-phosphonooxybenzyl]-(diethyl)-[[11β,16α]-[[15,16-((R)-cyclohexylmethylene)bis(oxy)]-11-hydroxypregna-1,4-diene-3,20-dion-21-yl]carbonylmethyl]ammonium chloride]
Lung Resistance (% Increase) at 2% Carbachol ([1]; Duration of action regimen (last dose 24 hours before carbachol), Ciclesonide 2.2 mg + Salmeterol Xinafoate 2.5 mg): 450 ± 36 % Increase | Lung Resistance (% Increase) at 2% Carbachol ([1]; Predosing regimen (last dose 1 hr before carbachol)): 335 ± 38 % Increase | Pulmonary Resistance (% of Baseline) ([2]; 6 μg/kg by inhalation): 266.1 ± 19.6 % of Baseline | Pulmonary Resistance (% of Baseline) ([2]; 20 μg/kg by inhalation): 181.2 ± 11.5 % of Baseline | TNFα ([3]; 0.6 mg/kg intratracheal): 293.6 ± 40.6 pg/mL | TNFα ([3]; 1 mg/kg intratracheal): 361.7 ± 56.6 pg/mL | Neutrophils ([3]; 3 mg/kg intratracheal, 1 hour prior to LPS): 13.5 ± 0.92 × 10^4/ml | TNFα ([3]; 3 mg/kg intratracheal): 307.0 ± 60.0 pg/mL | Neutrophils ([3]; 6 mg/kg intratracheal): 6.4 ± 0.41 × 10^4/ml | Inhibition of LPS-induced airway inflammation measured as neutrophil influx and TNFα production ([3]; at doses tested, versus vehicle control): significantly inhibit | Eosinophils in BAL, Mean ([4]; 0.6 mg/kg IT): 367580 mL⁻¹ | Neutrophils in BAL, Mean ([4]; 0.6 mg/kg IT): 7270 mL⁻¹ | Eosinophils in BAL, Mean ([4]; 1.0 mg/kg IT): 163320 mL⁻¹ | Neutrophils in BAL, Mean ([4]; 1.0 mg/kg IT): 5340 mL⁻¹ | Eosinophils in BAL, Mean [4, 7]: 57420 mL⁻¹ | Neutrophils in BAL, Mean [4, 7]: 10370 mL⁻¹ | IL-1α ([5]; 0.6 mg/kg i.t.): 2.54 ± 0.59 pg/mL | MIP-1α ([5]; 0.6 mg/kg i.t.): 4.34 ± 1.15 pg/mL | Neutrophils ([5]; 0.6 mg/kg i.t.): 7.7 ± 1.8 ×10^4/ml | IL-1α ([5]; 1.0 mg/kg i.t.): 2.74 ± 0.64 pg/mL | MIP-1α ([5]; 1.0 mg/kg i.t.): 7.0 ± 1.40 pg/mL | Neutrophils ([5]; 1.0 mg/kg i.t.): 8.5 ± 1.3 ×10^4/ml | Inhibition of tobacco-smoke-induced IL-1α and MIP-1α production ([5]; p<0.05 versus vehicle control at 1.0 and 0.6 mg/kg doses, 20-plex Luminex assay): exhibited inhibition | Bronchoconstriction, Lung Resistance (% Increase) ([6]; Duration of action regimen (last dose 24 hours before antigen), Post-Ascaris, Example 52 4.7 mg, ciclesonide 2.2 mg, salmeterol xinafoate 2.5 mg, n=4): 226 % Increase | Bronchoconstriction, Lung Resistance (% Increase) ([6]; Duration of action regimen, 1 hour, n=4): 95 % Increase | Bronchoconstriction, Lung Resistance (% Increase) ([6]; Duration of action regimen, 2 hours, n=4): 47 % Increase | Bronchoconstriction, Lung Resistance (% Increase) ([6]; Duration of action regimen, 3 hours, n=4): 17 % Increase | Bronchoconstriction, Lung Resistance (% Increase) ([6]; Duration of action regimen, 4 hours, n=4): 14 % Increase | Bronchoconstriction, Lung Resistance (% Increase) ([6]; Duration of action regimen, 5 hours, n=4): 25 % Increase | Bronchoconstriction, Lung Resistance (% Increase) ([6]; Duration of action regimen, 6 hours, n=4): 31 % Increase | Bronchoconstriction, Lung Resistance (% Increase) ([6]; Duration of action regimen, 6.5 hours, n=4): 26 % Increase | Bronchoconstriction, Lung Resistance (% Increase) ([6]; Duration of action regimen, 7 hours, n=4): 26 % Increase | Bronchoconstriction, Lung Resistance (% Increase) ([6]; Duration of action regimen, 7.5 hours, n=4): 20 % Increase | Bronchoconstriction, Lung Resistance (% Increase) ([6]; Duration of action regimen, 8 hours, n=4): 22 % Increase | Hyperreactivity PC400 ([6]; Duration of action regimen, Baseline, Example 52 4.7 mg, ciclesonide 2.2 mg, salmeterol xinafoate 2.5 mg, n=4): 27.8 carbachol breath units | Hyperreactivity PC400 ([6]; Duration of action regimen, Post-Antigen, n=4): 28 carbachol breath units | Bronchoconstriction, Lung Resistance (% Increase) ([6]; Predosing regimen (last dose 1 hr before antigen), Post-Ascaris, Example 52 4.7 mg, ciclesonide 2.2 mg, n=2): 220 % Increase | Bronchoconstriction, Lung Resistance (% Increase) ([6]; Predosing regimen, 1 hour, n=2): 118 % Increase | Bronchoconstriction, Lung Resistance (% Increase) ([6]; Predosing regimen, 2 hours, n=2): 69 % Increase | Bronchoconstriction, Lung Resistance (% Increase) ([6]; Predosing regimen, 3 hours, n=2): 34 % Increase | Bronchoconstriction, Lung Resistance (% Increase) ([6]; Predosing regimen, 4 hours, n=2): 9 % Increase | Bronchoconstriction, Lung Resistance (% Increase) ([6]; Predosing regimen, 5 hours, n=2): 24 % Increase | Bronchoconstriction, Lung Resistance (% Increase) ([6]; Predosing regimen, 6 hours, n=2): 34 % Increase | Bronchoconstriction, Lung Resistance (% Increase) ([6]; Predosing regimen, 6.5 hours, n=2): 19 % Increase | Bronchoconstriction, Lung Resistance (% Increase) ([6]; Predosing regimen, 7 hours, n=2): 23 % Increase | Bronchoconstriction, Lung Resistance (% Increase) ([6]; Predosing regimen, 7.5 hours, n=2): 28 % Increase | Bronchoconstriction, Lung Resistance (% Increase) ([6]; Predosing regimen, 8 hours, n=2): 14 % Increase | Hyperreactivity PC400 ([6]; Predosing regimen, Baseline, Example 52 4.7 mg, ciclesonide 2.2 mg, n=2): 27.5 carbachol breath units | Hyperreactivity PC400 ([6]; Predosing regimen, Post-Antigen (24 hours after challenge), n=2): 26.0 carbachol breath units | Effect on early phase bronchoconstriction ([6]; duration of action regimen): reduction | Effect on late phase bronchoconstriction and development of airway hyperreactivity ([6]; duration of action regimen): complete inhibition
